The values below come from publication PMC2384007 (PLoS ONE, 2008).

Test [1] deals with T1, Biotin Protein Ligase (MtBPL) (Mycobacterium tuberculosis, UniProt I6YFP0).
T1 construct: gene birA; 266 amino acids, hexahistidine tag at N-terminus
Briefly: ITC (VP-ITC, […]°C). It is filed as binding.

In test [2] the target is Mycobacterium tuberculosis Biotin Protein Ligase (Mycobacterium tuberculosis) (UniProt I6YFP0).
Mycobacterium tuberculosis Biotin Protein Ligase (Mycobacterium tuberculosis), sequence (I6YFP0 whole entry): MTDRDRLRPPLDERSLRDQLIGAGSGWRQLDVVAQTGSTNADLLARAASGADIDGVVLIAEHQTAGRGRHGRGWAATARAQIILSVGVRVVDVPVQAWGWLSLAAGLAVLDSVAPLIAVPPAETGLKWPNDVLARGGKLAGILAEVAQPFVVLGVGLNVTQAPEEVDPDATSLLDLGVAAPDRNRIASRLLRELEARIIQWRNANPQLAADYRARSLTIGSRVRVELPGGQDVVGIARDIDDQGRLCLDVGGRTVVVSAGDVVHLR

T1 sequence (I6YFP0 whole entry, looked up): as the sequence (I6YFP0 whole entry) above

Take `Nc1ncnc2c1ncn2[C@@H]1O[C@H](COP(=O)(O)OC(=O)CCCC[C@@H]2SC[C@@H]3NC(=O)N[C@@H]32)[C@@H](O)[C@H]1O` [bio-5′-AMP]: binding in test [1] was put at a Kd of 1.36 µM.
“biotin carboxyl carrier protein (BCCP) domain of M. tuberculosis acetyl CoA carboxylase (domain or fragment)”: the Km for BCCP in the MtBPL catalysed incorporation of [14C]-biotin into BCCP (steady state kinetics, Michaelis-Menten fit) in test [2] turned out to be 5.2 µM.
